# Measurements from patent US20240077498A1, “METHOD OF DIAGNOSING AND TREATING NONALCOHOLIC FATTY LIVER DISEASE AND NONALCOHOLIC STEATOHEPATITIS” (Board of Supervisors of Louisiana State University and …, priority 2020, published 2024).
# “Also recorded” adds a separate entry of the source.
# How the values were obtained:
# SLAMF 1 = assay: Palmitic acid treatment of human hepatocytes in culture, SLAMF1 protein by western blot and immunofluorescence; assay type: cell-based; conditions: for SLAMF1 level normalized to Tubulin, relative to control: western blot, n=3; for SLAMF 1 protein levels by immunofluorescence staining: palmitic acid vs vehicle
# Protocol: Hepatocytes were treated with two different doses of palmitic acid (0.4 and 0.8 mM). […] The 0.4 mM dose has a SLAMF1 level of 2.3 times the control level. The 0.8 mM dose has a SLAMF1 level of 5.8 times the control level. […] Representative immunofluorescence staining of hepatocytes treated with vehicle (left panel) or palmitic acid (right panel). Caveolin antibody (red, to label the membrane of the cells), SLAMF 1 antibody (green) and the nuclear marker DAPI (blue). Protein levels of SLAMF 1 are elevated in response to palmitic acid (right panel). The data represents n=4 samples per group. All samples were a courtesy of Pathology Department. All pictures were acquired on a Leica TCS SP5 Spectral Confocal Microscope equipped with a ×40 (oil) objective.
# HepG2 cells = assay: Palmitic acid lipotoxicity in HepG2 cells (MTT, lactate dehydrogenase, AnV cytometry, cleaved caspase 3 p17 western blot); assay type: cell-based, human; conditions: PA 24 h
# SLAMF1 = SLAMF1 expression in PA treated HepG2 cells (immunocytochemistry, Western blot, q-PCR, conditioned medium); assay type: cell-based, human; conditions: for SLAMF1 mRNA (q-PCR) / SLAMF1 protein (immunocytochemistry, Western blot): HepG2 cells, PA 24 h
# Source text: FIGS. 7A-7C show SLAMF1 increases in PA treated HepG2 cells.
# Non-alcoholic fatty liver disease (NAFLD) is one of the most common forms of chronic liver disease. NAFLD's initial phase involves hepatic steatosis (triglyceride accumulation in hepatocytes). NAFLD can rapidly progress to non-alcoholic steatohepatitis (NASH). NASH is characterized by increased oxidative stress, lipid peroxidation, inflammation, mitochondria dysfunction, and hepatocyte death and fibrosis. If untreated, NASH leads to cirrhosis, and in some cases, hepatocellular carcinoma. […] Therefore, it is critical to understand the mechanisms responsible for NAFLD progression to NASH to develop efficient therapies and find disease progression biomarkers. Signaling lymphocytic activation molecule 1 (SLAMF1) protein is a self-ligand receptor involved in regulating the immune response to viruses and cancer. In the present disclosure, the inventors discovered that hepatocytes from NASH liver samples from humans and mice express high levels of SLAMF1. To confirm these findings, the inventors used palmitic acid-treated HepG2 hepatocytes as an “in vitro” model of NASH. […] Based on the inventors' experimental results, SLAMF1 may be used as both a therapeutic and a diagnostic target (including soluble form) for NAFLD and NASH.
# Referring to FIGS. 6A-8E, the involvement of SLAMF1 in the progression of NASH was explored in human hepatocarcinoma cells HepG2.
smiles,measurement,setting,value
CCCCCCCCCCCCCCCC(=O)O [palmitic acid],"SLAMF1 level normalized to Tubulin, relative to control",SLAMF 1; 0.4 mM palmitic acid,2.3 times the control level
same,"SLAMF1 level normalized to Tubulin, relative to control",SLAMF 1; 0.8 mM palmitic acid,5.8 times the control level
same,SLAMF 1 protein levels,SLAMF 1; 0.4 and 0.8 mM palmitic acid,dose dependent increase
same,SLAMF 1 protein levels by immunofluorescence staining,SLAMF 1; n=4,significant increase in SLAMF1 levels
same,SLAMF 1 protein levels by immunofluorescence staining,"SLAMF 1; n=4, listed as Palmitic acid",elevated
same,"apoptosis (AnV by cytometry, cleaved caspase 3 p17 by western blot)",HepG2 cells,induced apoptosis
same,cell viability (MTT),HepG2 cells,reduces cell viability
same,cytotoxicity (Lactate dehydrogenase activity in conditioned medium),HepG2 cells,increases cytotoxicity
same,SLAMF1 mRNA (q-PCR),SLAMF1,significant increases
same,"SLAMF1 protein (immunocytochemistry, Western blot)",SLAMF1,significant increases
same,SLAMF1 mRNA (q-PCR),SLAMF1; listed as PA,increases
same,"SLAMF1 protein (immunocytochemistry, Western blot)",SLAMF1; listed as PA,increases SLAMF1 protein
same,SLAMF1 in culture/conditioned medium,SLAMF1; palmitic acid-treated hepatocytes,secrete SLAMF1 in the culture medium; also recorded: increases SLAMF1 both in cells and conditioned medium
